Experimental findings from patent US7544707B2, “Bicyclic derivatives as PPAR modulators” (Eli Lilly and Company, priority 2003, dated 2009) are described below.

In general, melting point refers to the temperature of the solid-liquid transition. `CC(C)(Oc1ccc(SCc2ccc3cn(-c4ccc(C(F)(F)F)cc4)nc3c2)cc1)C(=O)O` [Example 54, 2-Methyl-2-{4-[2-(4-trifluoromethylphenyl)-2H-indazol-6-ylmethylsulfanyl]phenoxy}propionic Acid] had a melting point of 176 to 178 °C. `Cc1cc(SCc2cccc3cn(-c4ccc(C(F)(F)F)cc4)nc23)ccc1OC(C)(C)C(=O)O` [Example 35, 2-Methyl-2-{2-methyl-4-[2-(4-trifluoromethylphenyl)-2H-indazol-7-ylmethylsulfanyl]phenoxy}propionic Acid] gave a melting point of 135 to 137 °C. In the case of `O=C(O)Cc1csc2cc(SCc3cccc4nn(-c5ccc(C(F)(F)F)cc5)cc34)ccc12` [Example 29, 6-[2-(4-Trifluoromethylphenyl)-2H-indazol-4-ylmethylsulfanyl]benzo[b]thiophen-3-ylacetic Acid], the melting point fell in the range of 183 to 185 °C. The figure for `CCc1cc(SCc2cccc3nn(-c4ccc(C(F)(F)F)cc4)cc23)ccc1OCC(=O)O` [Example 27, 2-Ethyl-4-[2-(4-trifluoromethylphenyl)-2H-indazol-4-ylmethylsufanyl]phenoxyacetic Acid] is 65 to 70 °C; for `CC(Sc1ccc(OC(C)(C)C(=O)O)cc1)c1cccc2c1cnn2-c1ccc(C(F)(F)F)cc1` (racemic) [Example 86, (+/−)-2-Methyl-2-(4-{1-[1-(4-trifluoromethylphenyl)-1H-indazol-4-yl]ethylsulfanyl}phenoxy)propionic Acid] it is 85 to 90 °C.

`O=C(O)Cc1csc2cc(SCc3cccc4cn(-c5ccc(C(F)(F)F)cc5)nc34)ccc12` [Example 5, 6-[2-(4-Trifluoromethylphenyl)-2H-indazol-7-ylmethylsulfanyl]benzo[b]thiophen-3-ylacetic Acid]: the melting point is 141 to 143 °C.

`Cc1cc(SC(C)c2cccc3cn(-c4ccc(C(F)(F)F)cc4)nc23)ccc1CCC(=O)O` (racemic) [Example 9, (+/−)-3-(2-Methyl-4-{1-[2-(4-trifluoromethylphenyl)-2H-indazol-7-yl]ethylsulfanyl}phenyl)propionic Acid] returned a melting point of 59 to 61 °C. Compound `Cc1cc(OCc2cccc3cnn(-c4ccc(C(F)(F)F)cc4)c23)ccc1OC(C)(C)C(=O)O` [Example 96, 2-Methyl-2-{2-methyl-4-[1-(4-trifluoromethylphenyl)-1H-indazol-7-ylmethoxy]phenoxy}propionic Acid] gave a melting point of 124 to 126 °C. The compound `CCc1cc(SCc2ccc3cn(-c4ccc(C(F)(F)F)cc4)nc3c2)ccc1OCC(=O)O` [Example 21, 2-Ethyl-4-[2-(4-trifluoromethylphenyl)-2H-indazol-6-ylmethylsulfanyl]phenoxyacetic Acid] had a melting point of 119 to 121 °C.

`Cc1cc(SCc2cccc3cnn(-c4ccc(C(F)(F)F)cc4)c23)ccc1OC(C)(C)C(=O)O` [Example 98, 2-Methyl-2-{2-methyl-4-[1-(4-trifluoromethylphenyl)-1H-indazol-7-ylmethylsulfanyl]phenoxy}propionic Acid] gave a melting point of 154 to 158 °C. `O=C(O)Cc1csc2cc(SCc3ccc4cn(-c5ccc(C(F)(F)F)cc5)nc4c3)ccc12` [Example 23, 6-[2-(4-Trifluoromethylphenyl)-2H-indazol-6-ylmethylsulfanyl]benzo[b]thiophen-3ylacetic Acid]: the melting point is 194 to 196 °C. `CC(Oc1ccc(OC(C)(C)C(=O)O)cc1)c1ccc2nn(-c3ccc(C(F)(F)F)cc3)cc2c1` (racemic) [Example 70, (+/−)-2-Methyl-2-(4-{1-[2-(4-trifluoromethylphenyl)-2H-indazol-5-yl]ethoxy}phenoxy)propionic Acid] displayed a melting point of 152 to 154 °C. With `CC(Sc1ccc(OC(C)(C)C(=O)O)cc1)c1cccc2cn(-c3ccc(C(F)(F)F)cc3)nc12` (racemic) [Example 42, (+/−)-2-Methyl-2-(4-{1-[2-(4-trifluoromethylphenyl)-2H-indazol-7-yl]ethylsulfanyl}phenoxy)propionic Acid] the figure was 150 to 152 °C. With `Cc1cc(OCc2ccc3cn(-c4ccc(C(F)(F)F)cc4)nc3c2)ccc1OC(C)(C)C(=O)O` [Example 51, 2-Methyl-2-{2-methyl-4-[2-(4-trifluoromethylphenyl)-2H-indazol-6-ylmethoxy]phenoxy}propionic Acid] the figure was 119 to 121 °C; with `CCc1cc(SCCc2cccc3cn(-c4ccc(C(F)(F)F)cc4)nc23)ccc1OCC(=O)O` [Example 45, (2-Ethyl-4-{2-[2-(4-trifluoromethylphenyl)-2H-indazol-7-yl]ethylsulfanyl}phenoxy)acetic Acid], 115 to 117 °C; with `Cc1cc(SC(c2ccccc2)c2cccc3c2cnn3-c2ccc(C(F)(F)F)cc2)ccc1OC(C)(C)C(=O)O` (racemic) [Example 92, (+/−)-2-Methyl-2-(2-methyl-4-{phenyl-[1-(4-trifluoromethylphenyl)-1H-indazol-4-yl]methylsulfanyl}phenoxy)propionic Acid], 181 to 186 °C.

`CC(Sc1ccc(OC(C)(C)C(=O)O)cc1)c1ccc2nn(-c3ccc(C(F)(F)F)cc3)cc2c1` (racemic) [Example 68, (+/−)-2-Methyl-2-(4-{1-[2-(4-trifluoromethylphenyl)-2H-indazol-5-yl]ethylsulfanyl}phenoxy)propionic Acid] returned a melting point of 109 to 111 °C. The figure for `CC(C)(Oc1ccc(SCc2cccc3cn(-c4ccc(C(F)(F)F)cc4)nc23)cc1)C(=O)O` [Example 36, 2-Methyl-2-{4-[2-(4-trifluoromethylphenyl)-2H-indazol-7-ylmethylsulfanyl]phenoxy}propionic Acid] is 140 to 142 °C; for `Cc1cc(OCc2cccc3c2cnn3-c2ccc(C(F)(F)F)cc2)ccc1OC(C)(C)C(=O)O` [Example 77, 2-Methyl-2-{2-methyl-4-[1-(4-trifluoromethylphenyl)-1H-indazol-4-ylmethoxy]phenoxy}propionic Acid] it is 100 to 104 °C. The figure for `CC(Sc1ccc(OC(C)(C)C(=O)O)cc1)c1cccc2nn(-c3ccc(C(F)(F)F)cc3)cc12` (racemic) [Example 73, (+/−)-2-Methyl-2-(4-{1-[2-(4-trifluoromethylphenyl)-2H-indazol-4-yl]ethylsulfanyl}phenoxy)propionic Acid] is 148 to 150 °C; for `Cc1cc(OCCc2cccc3cn(-c4ccc(C(F)(F)F)cc4)nc23)ccc1OC(C)(C)C(=O)O` [Example 48, 2-Methyl-2-(2-methyl-4-{2-[2-(4-trifluoromethylphenyl)-2H-indazol-7-yl]ethoxy}phenoxy)propionic Acid] it is 133 to 135 °C. As for `CC(Oc1ccc(OC(C)(C)C(=O)O)cc1)c1cccc2c1cnn2-c1ccc(C(F)(F)F)cc1` (racemic) [Example 85, (+/−)-2-Methyl-2-(4-{1-[1-(4-trifluoromethylphenyl)-1H-indazol-4-yl]ethoxy}phenoxy)propionic Acid], the melting point lay in the range of 99 to 102 °C. With `Cc1cc(SCc2ccc3nn(-c4ccc(C(F)(F)F)cc4)cc3c2)ccc1OC(C)(C)C(=O)O` [Example 64, 2-Methyl-2-{2-methyl-4-[2-(4-trifluoromethylphenyl)-2H-indazol-5-ylmethylsulfanyl]phenoxy}propionic Acid] the figure was 143 to 145 °C.
